Ki data for 13 compounds are collected here from patent US9212165B2, “Bicarbocyclic and tricarbocyclic ethynyl derivatives and uses of same” (H. Lundbeck A/S, priority 2011, dated 2015).

Each structure is given as a SMILES string.

mGluR5 (MPEP binding site), sequence (P41594 21-1212): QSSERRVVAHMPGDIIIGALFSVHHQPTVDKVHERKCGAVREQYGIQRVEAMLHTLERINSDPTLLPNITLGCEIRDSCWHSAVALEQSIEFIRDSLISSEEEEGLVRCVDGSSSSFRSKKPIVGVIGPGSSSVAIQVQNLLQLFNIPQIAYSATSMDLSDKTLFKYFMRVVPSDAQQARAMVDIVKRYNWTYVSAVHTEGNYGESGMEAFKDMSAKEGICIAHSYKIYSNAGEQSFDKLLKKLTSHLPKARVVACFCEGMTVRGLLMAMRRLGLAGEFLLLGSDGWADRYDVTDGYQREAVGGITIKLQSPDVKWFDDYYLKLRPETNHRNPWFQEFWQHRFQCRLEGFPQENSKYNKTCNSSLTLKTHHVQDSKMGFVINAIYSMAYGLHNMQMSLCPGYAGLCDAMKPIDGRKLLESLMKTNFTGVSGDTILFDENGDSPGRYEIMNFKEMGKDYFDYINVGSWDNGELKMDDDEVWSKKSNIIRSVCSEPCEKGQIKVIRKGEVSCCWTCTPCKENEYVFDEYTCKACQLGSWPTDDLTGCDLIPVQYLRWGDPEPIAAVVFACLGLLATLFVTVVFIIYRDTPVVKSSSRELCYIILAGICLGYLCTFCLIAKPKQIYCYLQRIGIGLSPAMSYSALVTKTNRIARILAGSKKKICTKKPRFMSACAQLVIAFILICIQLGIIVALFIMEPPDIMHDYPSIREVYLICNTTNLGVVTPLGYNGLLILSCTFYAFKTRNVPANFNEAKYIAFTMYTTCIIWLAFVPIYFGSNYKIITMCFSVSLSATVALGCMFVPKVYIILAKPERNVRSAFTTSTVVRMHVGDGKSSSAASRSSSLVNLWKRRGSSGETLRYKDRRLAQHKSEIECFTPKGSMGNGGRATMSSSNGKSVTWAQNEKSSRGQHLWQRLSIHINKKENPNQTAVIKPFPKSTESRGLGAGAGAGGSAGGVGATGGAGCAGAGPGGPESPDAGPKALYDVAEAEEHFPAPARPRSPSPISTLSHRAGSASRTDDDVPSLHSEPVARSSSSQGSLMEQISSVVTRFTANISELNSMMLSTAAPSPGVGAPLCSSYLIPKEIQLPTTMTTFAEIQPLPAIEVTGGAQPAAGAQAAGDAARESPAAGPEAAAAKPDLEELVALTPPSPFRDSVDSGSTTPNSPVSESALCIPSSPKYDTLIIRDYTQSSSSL

This test addresses mGluR5 (MPEP binding site) (Homo sapiens (Human), UniProt P41594). As to the kind of experiment: Radioligand binding assay (MPEP site radioligand, membrane filtration). As to conditions: 5 nM radioligand binding to MPEP site; Cheng-Prusoff. On the procedure: Binding assays were performed as described in [J. A. O'Brien et al. Mol Pharmacol., 2003, 64, 731-740] with slight modifications, including that a radioligand that binds to the […] (MPEP) binding site was used in place of [^3H] MPEP. Briefly, after thawing, the membrane homogenates were resuspended in 50 mM Tris-HCl and 0.9% NaCl binding buffer at pH 7.4 to a final assay concentration of 20 μg protein/well for radioligand filtration binding. Incubations included 5 nM radioligand, membranes and either buffer or varying concentrations of compound. Samples were incubated for 60 min at room temperature with shaking. Non-specific binding was defined with 10 μM cold MPEP when using the radioligand. After incubation, samples were filtered over a GF/C filter (presoaked in 0.25% polyethyleneimine (PEI)) and then washed 4 times using a Tomtec® Harvester 96® Mach III cell harvester (Tomtec, Hamden, Conn.) with 0.5 mL ice-cold 50 mM Tris-HCl (pH 7.4).
IC50 values were derived from the inhibition curve and Ki values were calculated according to the Cheng and Prusoff equation of Ki=IC50/(1+[L]/Kd) described in [Y. Cheng and W. H. Prusoff Biochem. Pharmacal. 1973, 22, 3099-3108] where [L] is the concentration of radioligand and Kd is its dissociation constant at the receptor, derived from the saturation isotherm.
As to `Cc1cncc(C#CC23CC4CC(C2)CC(NC(=O)c2cccc(F)c2)(C4)C3)n1` [Example 56, 3-fluoro-N-[3-(6-methylpyrazin-2-ylethynyl)-1-adamantyl]benzamide], the affinity corresponds to a Ki of 1300 nM. Turning to `Cc1nccc(C(=O)N[C@]23CCC[C@](C#Cc4ccccn4)(CC2)C3)n1` [Example 18, 2-methyl-N-((1R,5S)-5-(pyridin-2-ylethynyl)bicyclo[3.2.1]octan-1-yl)pyrimidine-4-carboxamide], the inhibition constant (Ki) came out at 10 nM. The figure for `Cc1csc(C(=O)N[C@]23CCC[C@](C#Cc4cnccn4)(CC2)C3)n1` [Example 45, 4-methyl-N-((1R,5S)-5-(pyrazin-2-ylethynyl)bicyclo[3.2.1]octan-1-yl)thiazole-2-carboxamide] is 6.2 nM; for `Cn1ccc(C(=O)N[C@]23CCC[C@](C#Cc4cnccn4)(CC2)C3)n1` [Example 44, 1-methyl-N-((1R,5S)-5-(pyrazin-2-ylethynyl)bicyclo[3.2.1]octan-1-yl)-1H-pyrazole-3-carboxamide] it is 34 nM; for `O=C(NC12CC3CC(CC(C#Cc4ccccn4)(C3)C1)C2)c1cnccn1` [Example 71, N-[3-(pyridin-2-ylethynyl)-1-adamantyl]pyrazine-2-carboxamide] it is 4.7 nM. The figure for `Cc1nccc(C(=O)N[C@@]23CCC[C@@](C#Cc4ccccn4)(CC2)C3)n1` [Example 28, 2-methyl-N-((1S,5R)-5-(pyridin-2-ylethynyl)bicyclo[3.2.1]octan-1-yl)pyrimidine-4-carboxamide] is 17 nM; for `O=C(NC12CCCC(C#Cc3cccc(F)c3)(CC1)C2)c1cnccn1` (stereo not shown) [Example 3, pyrazine-2-carboxylic acid [5-(3-fluoro-phenylethynyl)-bicyclo[3.2.1]oct-1-yl]-amide] it is 3 nM. The figure for `O=C(N[C@]12CCC[C@](C#Cc3ccccn3)(CC1)C2)c1ccc(F)cn1` [Example 20, 5-fluoro-N-((1R,5S)-5-(pyridin-2-ylethynyl)bicyclo[3.2.1]octan-1-yl)picolinamide] is 11 nM. On to `O=C(NC12CCCC(C#Cc3cnccn3)(CC1)C2)c1cccc(Cl)c1` (stereo not shown) [Example 13, 3-Chloro-N-(5-pyrazin-2-ylethynyl-bicyclo[3.2.1]oct-1-yl)-benzamide], for which the Ki stood at 91 nM. Next, `Cn1ccc(C(=O)N[C@@]23CCC[C@@](C#Cc4cnccn4)(CC2)C3)n1` [Example 49, 1-methyl-N-((1S,5R)-5-(pyrazin-2-ylethynyl)bicyclo[3.2.1]octan-1-yl)-1H-pyrazole-3-carboxamide]: 590 nM; `Cc1csc(C(=O)N[C@@]23CCC[C@@](C#Cc4cnccn4)(CC2)C3)n1` [Example 50, 4-methyl-N-((1S,5R)-5-(pyrazin-2-ylethynyl)bicyclo[3.2.1]octan-1-yl)thiazole-2-carboxamide]: 38 nM; `Cc1csc(C#CC23CC4CC(C2)CC(NC(=O)c2ccn(C)n2)(C4)C3)n1` [Example 81, 1-methyl-N-[3-(4-methylthiazol-2-ylethynyl)-1-adamantyl]-1H-pyrazole-3-carboxamide]: 120 nM. Next, `O=C(N[C@@]12CCC[C@@](C#Cc3ccccn3)(CC1)C2)c1ccc(F)cn1` [Example 30, 5-fluoro-N-((1S,5R)-5-(pyridin-2-ylethynyl)bicyclo[3.2.1]octan-1-yl)picolinamide]: 35 nM.
